Results: paper PMC6941172 (Journal of medicinal chemistry, 2018)

What was measured:
[1] = test system: C57BL/6 mice; assay: Spontaneous locomotor activity assay in mice; type: in vivo, mouse; details: for Hyperlocomotor action: IP 3, 10 and 30 mg/kg
[2] = target: Dopamine D5 (Homo sapiens, UniProt P21918); assay: PDSP radioligand displacement, [3H]SCH233930; type: binding; details: [3H]SCH233930, PDSP primary assay
[3] = test system: adult male Wistar rats; assay: Spontaneous locomotor activity assay in rats; type: in vivo, rat
[4] = test system: rats; assay: Rotarod pilot experiment in rats; type: in vivo, rat; details: IP doses as high as 55 mg/kg
[5] = Pharmacokinetic study, IP 10 mg/kg, plasma and brain; type: in vivo, rat; details: rats
[6] = Microsomal stability assay, human liver microsomes; type: in vitro ADME; details: vs respective parent (8a, 8i, 8n or 8k)
[7] = Microsomal stability assay, mouse liver microsomes; type: in vitro ADME; details: vs respective parent (8a, 8i, 8n or 8k)
[8] = target: T1, GABAAR α6β3γ2 subtype (Rattus norvegicus, UniProt P18508+P30191+P63079); details: at 10 μM; cited from earlier work
[9] = target: DOR (Homo sapiens, UniProt P41143); assay: PDSP radioligand displacement, [3H]DADLE; type: binding; details: PDSP primary assay
[10] = Solubility assay; type: physicochemical; details: vs parent ligand 8a
[11] = target: T2, Muscarinic M4 (Homo sapiens, UniProt P08173); type: binding
T2 sequence (P08173 1-479): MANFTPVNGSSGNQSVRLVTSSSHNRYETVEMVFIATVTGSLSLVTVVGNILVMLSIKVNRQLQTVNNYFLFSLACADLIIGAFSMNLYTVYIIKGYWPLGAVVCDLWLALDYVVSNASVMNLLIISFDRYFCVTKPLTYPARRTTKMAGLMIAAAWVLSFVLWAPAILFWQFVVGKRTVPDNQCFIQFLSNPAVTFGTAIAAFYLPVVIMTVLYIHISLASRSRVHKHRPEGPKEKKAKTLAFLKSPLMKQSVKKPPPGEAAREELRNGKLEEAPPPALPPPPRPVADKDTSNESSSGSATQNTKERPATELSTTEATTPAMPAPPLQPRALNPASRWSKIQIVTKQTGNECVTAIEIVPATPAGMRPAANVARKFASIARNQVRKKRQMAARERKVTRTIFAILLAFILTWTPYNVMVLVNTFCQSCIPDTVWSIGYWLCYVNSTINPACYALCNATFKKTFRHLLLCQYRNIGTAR

[12] = test system: HEK293 (kidney) cells; assay: Cytotoxicity assay; type: cell-based, human; details: HEK293, up to 400 μM, 48 hours
[13] = test system: α1-5β3γ2 receptors; assay: Electrophysiological assay in Xenopus oocytes, other receptor subtypes; type: cell-based; details: two-point experiments
[14] = test system: HEPG2 (liver) cells; assay: Cytotoxicity assay; type: cell-based, human; details: HEPG2, up to 400 μM, 48 hours
[15] = target: T1, GABAAR α6β3γ2 subtype; assay: Electrophysiological assay in Xenopus oocytes, modulation of GABA EC3 currents; type: cell-based
[16] = test system: Female Swiss Webster mice; details: 5 mg/kg positive control

T1 sequence (P30191 20-453): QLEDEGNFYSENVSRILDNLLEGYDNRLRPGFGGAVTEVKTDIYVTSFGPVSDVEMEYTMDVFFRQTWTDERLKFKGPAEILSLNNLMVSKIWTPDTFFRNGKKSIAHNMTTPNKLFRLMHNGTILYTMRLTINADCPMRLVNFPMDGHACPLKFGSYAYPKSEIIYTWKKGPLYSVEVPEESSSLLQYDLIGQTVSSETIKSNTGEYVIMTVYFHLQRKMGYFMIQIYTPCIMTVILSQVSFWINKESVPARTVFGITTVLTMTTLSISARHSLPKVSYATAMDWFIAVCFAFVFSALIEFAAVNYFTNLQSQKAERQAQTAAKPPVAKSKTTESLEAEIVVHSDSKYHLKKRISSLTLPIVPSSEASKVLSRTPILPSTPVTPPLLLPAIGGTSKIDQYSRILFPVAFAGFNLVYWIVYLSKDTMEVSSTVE
T1 sequence (P63079 26-473): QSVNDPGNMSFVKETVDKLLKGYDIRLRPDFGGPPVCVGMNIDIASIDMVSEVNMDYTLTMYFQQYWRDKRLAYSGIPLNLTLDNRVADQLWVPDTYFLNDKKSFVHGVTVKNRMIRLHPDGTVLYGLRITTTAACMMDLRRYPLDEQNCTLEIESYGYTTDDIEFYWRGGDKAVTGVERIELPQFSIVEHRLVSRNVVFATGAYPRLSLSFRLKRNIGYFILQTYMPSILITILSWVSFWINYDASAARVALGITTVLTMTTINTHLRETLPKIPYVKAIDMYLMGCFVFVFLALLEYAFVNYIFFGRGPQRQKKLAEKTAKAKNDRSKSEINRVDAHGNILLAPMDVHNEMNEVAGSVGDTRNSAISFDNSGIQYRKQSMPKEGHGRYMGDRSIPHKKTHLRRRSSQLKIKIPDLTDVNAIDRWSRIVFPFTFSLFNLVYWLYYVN
T1 sequence (P18508 39-466): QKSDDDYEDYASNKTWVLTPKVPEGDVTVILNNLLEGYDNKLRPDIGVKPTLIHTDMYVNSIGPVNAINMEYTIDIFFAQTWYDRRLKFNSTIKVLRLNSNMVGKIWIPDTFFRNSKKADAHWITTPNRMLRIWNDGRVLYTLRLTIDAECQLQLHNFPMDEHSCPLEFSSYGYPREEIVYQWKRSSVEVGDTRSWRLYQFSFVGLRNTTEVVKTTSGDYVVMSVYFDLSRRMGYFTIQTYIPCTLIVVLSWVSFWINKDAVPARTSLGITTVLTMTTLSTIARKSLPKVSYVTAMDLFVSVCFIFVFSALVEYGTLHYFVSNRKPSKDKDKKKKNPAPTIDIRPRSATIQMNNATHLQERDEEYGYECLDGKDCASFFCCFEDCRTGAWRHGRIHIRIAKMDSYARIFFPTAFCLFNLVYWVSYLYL
Chain of DOR (P41143 whole entry): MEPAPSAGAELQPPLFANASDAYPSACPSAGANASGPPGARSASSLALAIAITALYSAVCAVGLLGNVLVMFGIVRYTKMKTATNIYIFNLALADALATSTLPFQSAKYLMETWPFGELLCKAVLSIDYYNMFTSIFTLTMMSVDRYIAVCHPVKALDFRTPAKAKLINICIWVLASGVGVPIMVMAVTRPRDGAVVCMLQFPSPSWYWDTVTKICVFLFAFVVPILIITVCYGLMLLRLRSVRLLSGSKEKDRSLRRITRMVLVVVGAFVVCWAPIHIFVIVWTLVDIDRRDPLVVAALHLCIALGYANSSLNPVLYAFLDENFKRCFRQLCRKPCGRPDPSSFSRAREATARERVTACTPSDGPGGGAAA
Chain of Dopamine D5 (P21918 whole entry): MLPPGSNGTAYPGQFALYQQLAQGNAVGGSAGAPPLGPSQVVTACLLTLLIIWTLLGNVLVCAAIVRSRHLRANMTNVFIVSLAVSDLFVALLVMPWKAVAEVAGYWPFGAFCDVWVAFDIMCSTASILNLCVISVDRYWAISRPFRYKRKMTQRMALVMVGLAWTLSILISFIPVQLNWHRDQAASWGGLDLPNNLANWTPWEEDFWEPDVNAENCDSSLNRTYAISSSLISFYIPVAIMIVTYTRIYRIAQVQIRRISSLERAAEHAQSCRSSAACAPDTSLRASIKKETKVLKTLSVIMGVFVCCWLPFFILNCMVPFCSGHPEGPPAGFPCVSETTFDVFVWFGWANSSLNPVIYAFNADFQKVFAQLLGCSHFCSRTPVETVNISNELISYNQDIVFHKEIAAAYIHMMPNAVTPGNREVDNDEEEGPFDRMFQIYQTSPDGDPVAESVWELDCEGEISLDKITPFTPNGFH

## COc1ccc(-n2nc3c4ccc(OC)cc4[nH]cc-3c2=O)cc1 [Compound 8a, 7-Methoxy-2-(4-methoxyphenyl)-2,5-dihydro-3H-pyrazolo[4,3-c]quinolin-3-one]
[1]
  Hyperlocomotor action: induced a hyperlocomotor action
[2]
  Activity at Dopamine D5: showed activity

## [2H]C([2H])([2H])Oc1ccc(-n2nc3c4ccc(OC)cc4[nH]cc-3c2=O)cc1 [Compound 8b, 7-Methoxy-2-(4-methoxy-d3-phenyl)-2,5-dihydro-3H-pyrazolo[4,3-c]quinolin-3-one]
[3]; IP 10 mg/kg, first experiment (Figure 11A)
  Hyperlocomotor response: induced a hyperlocomotor response
[3]; IP 10 mg/kg, repeated experiment (Figure 11C)
  Hyperlocomotor response: did not reach statistical significance
[3]; IP 3 and 10 mg/kg, third experiment (Figure 11E)
  Hyperlocomotor response: present
[4]
  Motor coordination and balance on the rotarod: retained
[1]; IP 10 mg/kg with diazepam 3 mg/kg IP
  Hyperlocomotor effect in combination with diazepam: present
[1]
  Hyperlocomotor action: induced a hyperlocomotor action
[5]
  Brain concentration (Cmax) compared with parent 8a: almost two-fold increase
  Free (unbound) brain concentrations: ~100 nM
[6]
  Increase in half-life (HLM) relative to parent ligand: 2.5 fold
[7]
  Increase in half-life (MLM) relative to parent ligand: three-fold

## COc1ccc(-n2nc3c4cc(Cl)ccc4[nH]cc-3c2=O)cc1 [Compound 8k, 8-Chloro-2-(4-methoxyphenyl)-2,5-dihydro-3H-pyrazolo[4,3-c]quinolin-3-one]
[8]
  α6β3γ2 efficacy relative to 8a and 8n: three times higher

## [2H]C([2H])([2H])Oc1ccc(-n2nc3c4cc(Cl)ccc4[nH]cc-3c2=O)cc1 [Compound 8l, 8-Chloro-2-(4-methoxy-d3-phenyl)-2,5-dihydro-3H-pyrazolo[4,3-c]quinolin-3-one]
[9]
  Interaction with DOR: weakly interacted

## COc1ccc2c3nn(-c4ccc(OC)nc4)c(=O)c-3c[nH]c2c1 [Compound 13a, 7-Methoxy-2-(6-methoxypyridin-3-yl)-2,5-dihydro-3H-pyrazolo[4,3-c]quinolin-3-one]
[10]
  Increase in water solubility: about 3 fold
[7]
  Increase in half-life (MLM) relative to parent ligand: slightly decreased half-life
[11]
  Activity at Muscarinic M4: showed activity

## [2H]C([2H])([2H])Oc1ccc2c3nn(-c4ccc(OC)nc4)c(=O)c-3c[nH]c2c1 [Compound 13c, 7-Methoxy-d3-2-(6-methoxypyridin-3-yl)-2,5-dihydro-3H-pyrazolo[4,3-c]quinolin-3-one]
[12]
  Cytotoxicity / cell viability: no impact of cell viability
[13]
  Activity at α1-5β3γ2 receptors: lack of activity
[14]
  Cytotoxicity / cell viability: no impact of cell viability
[5]
  Brain AUC0-12 as % of that obtained with 8b: 45%
  Brain AUC0-12 as % of that obtained with 8c: 36%
  Brain AUC0-12 as % of that obtained with 8d: 55%
  Brain concentration (Cmax) compared with parent 8a: considerably less
[15]
  Efficacy / activity at the α6β3γ2 subtype (in words): retained some efficacy

## CN1C(=O)CN=C(c2ccccc2)c2cc(Cl)ccc21 [diazepam]
[16]
  Rotarod motor impairment: greatest impairment of sensorimotor steadiness at 10 minutes
